B1: Ovalbumin: model protein antigen injected without adjuvant (protein, UniProt P01012 2-386, looked up)
Ovalbumin: GSIGAASMEFCFDVFKELKVHHANENIFYCPIAIMSALAMVYLGAKDSTRTQINKVVRFDKLPGFGDSIEAQCGTSVNVHSSLRDILNQITKPNDVYSFSLASRLYAEERYPILPEYLQCVKELYRGGLEPINFQTAADQARELINSWVESQTNGIIRNVLQPSSVDSQTAMVLVNAIVFKGLWEKAFKDEDTQAMPFRVTEQESKPVQMMYQIGLFRVASMASEKMKILELPFASGTMSMLVLLPDEVSGLEQLESIINFEKLTEWTSSNVMEERKIKVYLPRMKMEEKYNLTSVLMAMGITDVFSSSANLSGISSAESLKISQAVHAAHAEINEAGREVVGSAEAGVDAASVSEEFRADHPFLFCIKHIATNAVLFFGRCVSP

Assays:
[1] = i.m., 50 μl, various concentrations, after 7 days
Protocol: Paclitaxel (PTX) (Bristol-Myers Squibb, Princeton, N.J.), Doxorubicin (DOX) (Gensia, Irvine, Calif.), and Cisplatin (CIS) (Bristol-Myers Squibb) are diluted before injection. Cyclophosphamide (CTX) (Bristol-Myers Squibb) is diluted in sterile water before injection. PTX, CTX, Dox and CIS are injected intramuscularly (i.m.). (50 μl containing various concentrations of chemotherapeutic agents). Muscles are harvested and sectioned to perform histological analysis to assess tissue damage.

[2] = system: melanoma; conditions: pretreatment with low dose cyclophosphamide before melanoma vaccine, after 2 months of immunization; cited from earlier work
[3] = system: MCP-1; assay: Paclitaxel induces MCP-1 in muscle tissue (RT-PCR); type: in vivo, Mice; conditions: i.m., muscle harvested 6 hours after injection
Protocol: Mice are injected intramuscularly (bilaterally) with varying doses of paclitaxel (100 μM to 0.01 μM). Doses of paclitaxel are prepared by 10-fold serial dilutions, in saline, of a 10 mM DMSO stock. The muscles are harvested, on dry ice, 6 hours following injection, and frozen at −80° C. RNA is isolated using TRIZOL reagent (Gibco) as per manufacturers specifications. Ten micrograms of total RNA is reverse transcribed using Superscript RT (Gibco), 500 ng oligodT primers (Gibco), and 250 ng Random Hexamer primers (Gibco) for 20 minutes at room temperature, followed by 2 hours at 42° C.
MCP-1 is amplified from 2 μl of reverse transcription reaction using Titanium PCR kit (Clontech). Amplification primers are as follows:
The PCR reaction is performed for 30 cycles using 100 pmole for each primer, with an annealing temperature of 68 degrees. The PCR products are analyzed on a 1.5% agarose gel, and have an expected size of 397 bps.

[4] = system: B16 cells; assay: Melanine levels in B16 cells pretreated with paclitaxel; type: cell-based
Protocol: This unexpected observation lead to the immunological rationale for testing immune-modulating doses of chemotherapy in combination with an antigen. As described in Example II, paclitaxel increased the humoral response against ovalbumin. The testing of paclitaxel as improving a whole-cell vaccine in mice was performed as shown in Examples III and V. This principle is illustrated in FIG. 1. Sterilizing cancer cells with chemotherapeutic agents before immunization of the mice with a composition of cancer cells undergoing apoptosis and/or necrosis and chemotherapeutic agents protected the animals against a lethal tumor challenge. This was unexpected since chemotherapeutic agents are known to be toxic and to trigger systemic immunosuppression. Also, to have in one single composition a chemotherapeutic agent(s) and an antigen administered simultaneously simplifies the use of chemotherapeutic agents as potential vaccine adjuvants. The presence of the chemotherapeutic agent in the anti-cancer vaccine composition also renders moot or diminish the need to proceed to the inactivation by irradiation of the tumoral cells forming the anti-cancer vaccine before reinoculation. The drugs, especially paclitaxel, helps to raise an immune response by inducing a variety of genes known to be antigenic. […]

[5] = system: C2C12 cells; assay: Paclitaxel toxicity on differentiated C2C12 cells; type: cell-based; conditions: various concentrations, even high concentration, non-dividing cells
Protocol: […] cells were plated in a 12-wells plate at 7×10^4 cells/ml/well in complete DMEM (10 FBS, 1% Strepto-pen, 1% Hepes) and incubated O/N at 37° C. under 5% CO2 atmosphere. Twenty-four hours later, normal DMEM was changed for DMEM containing 2% Horse serum, 1% Strepto-pen and 1% Hepes. The medium was then changed everyday with the complete DMEM 2% Horse serum. For an extra 7 days, complete DMEM 10% Horse serum was added to the cells. After about 1 week, all cells were differentiated and treated with various concentrations of paclitaxel. Even at a high concentration of paclitaxel, differentiated cells now forming elongated muscular fibers, were not affected by any treatment probably due to the non-dividing state of the cells. This observation support the fact that drugs can be injected in the muscle without necessarily causing damages or cell death.

[6] = system: ovalbumin; assay: Humoral response against ovalbumin (ELISA) after intramuscular immunization; type: in vivo, Mice; conditions: 1 μg ovalbumin i.m. without adjuvant, 2 weeks
Protocol: The animals are injected intramuscularly into tibialis anterior muscles with 50 μl containing either 1 μg of ovalbumin formulated with or without paclitaxel at 10E^−2 molar. Mice are sacrificed at various time points to perform the ELISA (2 weeks post-immunization). Ovalbumin-specific antibody responses are quantified by enzyme-linked immunosorbent assay (ELISA). Microtiter plates are coated overnight with 1 μg per well of ovalbumin. Plates are then washed once with PBS-Tween 0.01% and blocked for 2 hours at 37° C. with PBS+1% BSA. The plates are then incubated with serial dilutions of mouse sera for 1 hour at 37° C. […] The data are expressed as the percentage of responding mice and as the mean titers of responding mice.

Molecule	infiltration of lymphocytes (histology of injected muscle) [1]	tissue damage (histology of injected muscle) [1]	further results
O=P1(N(CCCl)CCCl)NCCCO1 (stereo not drawn) [Cyclophosphamide]	mild to moderate	no sign of tissue damage	patients with augmented antibody and/or cellular immune responses to melanoma [2]: 83%
N.N.[Cl][Pt][Cl] [Cisplatin]	mild to moderate	no sign of tissue damage	
CC(=O)O[C@H]1C(=O)[C@@]2(C)[C@H]([C@H](OC(=O)c3ccccc3)[C@]3(O)C[C@H](OC(=O)[C@H](O)[C@@H](NC(=O)c4ccccc4)c4ccccc4)C(C)=C1C3(C)C)[C@]1(OC(C)=O)CO[C@@H]1C[C@@H]2O [Paclitaxel]	mild to moderate	no sign of tissue damage	Fold-induction over GAPDH (MCP-1 RT-PCR) ([3]; 0.01 μM per injection): 2 fold; Fold-induction over GAPDH (MCP-1 RT-PCR) ([3]; 1 μM per injection): 3 fold; Fold-induction over GAPDH (MCP-1 RT-PCR) ([3]; 100 μM per injection): 6 fold; Melanine levels in B16 cells [4]: increases; effect on differentiated C2C12 cells (toxicity) [5]: not affected
COc1cccc2c1C(=O)c1c(O)c3c(c(O)c1C2=O)C[C@@](O)(C(=O)CO)C[C@@H]3O[C@H]1C[C@H](N)[C@H](O)[C@H](C)O1 [Doxorubicin]	mild to moderate	no sign of tissue damage	
B1			% seroconversion [6]: 20%

From US20060051354A1, “Chemotherapeutic agents as anti-cancer vaccine adjuvants and therapeutic methods thereof” (priority 2002, published 2006)
